Experimental data as given in patent publication US20160287540A1, “Increasing Cancer Patient Survival Time by Administration of Dithio-Containing Compounds” (BioNumerik Pharmaceuticals, Inc., priority 2015, published 2016).
Entries after “also recorded” stand apart in the source; their conditions may differ. Read-outs that look alike come from different tables or passages of the source.

Tests used:
[1] = test system: mammalian thioredoxin reductase (TXR); details: cited from earlier work
[2] = molecular target: T1, glutathione reductase (GR) (Homo sapiens, UniProt P00390); details: cited from earlier work
T1 sequence (P00390 44-522): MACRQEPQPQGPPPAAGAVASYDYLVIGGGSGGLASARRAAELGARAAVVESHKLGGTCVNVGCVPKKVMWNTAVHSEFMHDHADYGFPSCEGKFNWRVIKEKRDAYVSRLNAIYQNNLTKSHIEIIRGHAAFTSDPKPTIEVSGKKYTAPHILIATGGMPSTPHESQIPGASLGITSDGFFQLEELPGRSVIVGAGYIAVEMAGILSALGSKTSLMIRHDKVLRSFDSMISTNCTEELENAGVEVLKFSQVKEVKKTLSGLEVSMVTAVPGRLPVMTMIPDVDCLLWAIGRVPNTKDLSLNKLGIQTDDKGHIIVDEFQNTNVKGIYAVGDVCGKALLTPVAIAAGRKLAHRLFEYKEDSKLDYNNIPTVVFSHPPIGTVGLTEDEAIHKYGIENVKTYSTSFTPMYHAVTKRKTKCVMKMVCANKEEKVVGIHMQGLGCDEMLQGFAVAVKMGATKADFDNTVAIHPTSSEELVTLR

[3] = test system: coupled thioredoxin (TX)/thioredoxin reductase (TXR)/NADPH system; format: biochemical, bovine
Protocol: (§1) Biochemistry 21:6628-6633 (1982).
(§2) Data was then collected and plotted in Microsoft Excel. Error calculations, and graphical representations were performed in Microsoft Excel and Kaleidograph (ver. 3.5). Nonlinear data was graphically rendered using Kaleidograph. ANOVA and other statistical analyses were performed using SAS (ver. 8.2). Unless otherwise noted, significance level was set at 0.05, and error bars represent actual experimental standard deviation.
Table5, below, illustrates that various Formula (I) compounds (i.e., disulfide-containing compounds) of the present invention can serve as alternate substrate inhibitors for the coupled thioredoxin (TX)/thioredoxin reductase (TXR)/NADPH system as measured by the oxidation of NADPH. In Table5, the Formula (I) compounds were utilized at a concentration of 0.5 mM.

[4] = molecular target: T2, thioredoxin reductase (TXR) (Bos taurus, UniProt O62768); assay: NADPH oxidation by thioredoxin reductase only; format: biochemical; details: listed as Tavocept™
T2 sequence (O62768 1-499): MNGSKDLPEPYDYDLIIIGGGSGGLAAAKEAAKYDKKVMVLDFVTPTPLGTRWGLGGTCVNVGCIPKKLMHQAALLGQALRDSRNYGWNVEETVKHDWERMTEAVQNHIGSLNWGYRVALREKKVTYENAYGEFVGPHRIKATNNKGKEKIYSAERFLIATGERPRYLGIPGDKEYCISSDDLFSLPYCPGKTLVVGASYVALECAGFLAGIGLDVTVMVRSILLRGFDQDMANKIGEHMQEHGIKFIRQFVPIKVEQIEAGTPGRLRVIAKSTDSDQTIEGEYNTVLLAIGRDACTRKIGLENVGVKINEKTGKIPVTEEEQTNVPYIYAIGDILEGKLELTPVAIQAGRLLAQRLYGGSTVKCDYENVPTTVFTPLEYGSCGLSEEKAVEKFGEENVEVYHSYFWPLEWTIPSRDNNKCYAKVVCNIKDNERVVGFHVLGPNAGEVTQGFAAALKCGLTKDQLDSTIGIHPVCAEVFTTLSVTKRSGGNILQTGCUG
Protocol: as §1, §2

[5] = molecular target: T1, glutathione reductase (GR); assay: NADPH oxidation by glutathione reductase, without or with GSH; format: biochemical
Protocol: (§3) Table 4, below, illustrates that various Formula (I) compounds (i.e., dithiol-containing compounds) may act as alternative substrate inhibitors for the coupled GRX/GSH/GR system as measured by NADPH oxidation. The Formula (I) compound was utilized at a concentration of 0.5 mM.

[6] = molecular target: T3, coupled glutaredoxin (GRX)/glutathione (GSH)/glutathione reductase (GR) system (Homo sapiens, UniProt P35754); assay: NADPH oxidation by coupled GRX/GSH/GR system; format: biochemical; details: in the presence of reduced glutathione and glutathione reductase
T3 sequence (P35754 1-106): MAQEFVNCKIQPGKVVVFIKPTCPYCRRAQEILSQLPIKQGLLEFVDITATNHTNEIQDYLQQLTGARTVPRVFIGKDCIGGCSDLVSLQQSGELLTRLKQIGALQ
Protocol: as §3

[7] = test system: patients with advanced, Stage IIIB/IV, non-small cell lung carcinoma (NSCLC), including the adenocarcinoma sub-type; assay: U.S. Phase II NSCLC Clinical Trial (dose-dense docetaxel/cisplatin with or without Tavocept™); format: in vivo, human; details: Tavocept™ arm vs non-Tavocept™ arm
Source text: As utilized herein, the term “clinical trial” or “trial”, refers to: • (i) the Japan Phase III Clinical Trial disclosed in the present invention which was utilized to show the ability of Tavocept™ (also referred to in the literature as disodium 2,2′-dithio-bis-ethane sulfonate, dimesna, or BNP7787) to prevent and/or reduce peripheral neuropathy induced by paclitaxel/cisplatin combination therapy. The incidence and severity of adverse reactions, time to their onset, etc. and the like, were compared between patients treated with Tavocept™ and those given a placebo using Quality of Life (QOL) questionnaires (i.e., Peripheral Neuropathy Questionnaire (PNQ©) and CIPN-20)) and the National Cancer Institute-Common Toxicity Criteria (NCI-CTC). The effects of Tavocept™ on the Quality of Life (QOL) of patients under anticancer treatment were also evaluated using the QOL questionnaire, EORTC QLQ-C30. Whether or not Tavocept™ would affect the efficacy of paclitaxel/cisplatin combination therapy was also evaluated based on the response rate, aggravation-free survival period, and total survival period. […] Whether or not Tavocept™ would affect the efficacy of the dose-dense docetaxel/cisplatin combination therapy was also evaluated based on the response rate, aggravation-free survival period, and total survival period. […]

[8] = test system: whole cells (reduction of TX/TXR and GRX substrates); assay: Whole cell mediated disulfide reduction; format: cell-based; details: mesna in combination with cisplatin
[9] = test system: non-small cell lung carcinoma (NSCLC) cell lines; assay: Cytotoxicity in NSCLC cell lines; format: cell-based, human
[10] = test system: ovarian cancer cell lines; assay: Cytotoxicity in ovarian cancer cell lines; format: cell-based, human; details: mesna (100 μM) in combination with oxaliplatin vs oxaliplatin alone controls
brain cancer cells = assay: Cytotoxicity in brain cancer cells; format: cell-based, human; details: oxaliplatin and mesna; observable but not statistically significant

O=C1[O][Pt]2([NH][C@@H]3CCCC[C@H]3[NH]2)[O]C1=O [oxaliplatin]
inhibition of TXR (in words) [1]: irreversibly inhibited TXR | inhibition of GR (in words) [2]: not GR

NC(CSSCCS(=O)(=O)O)C(=O)O (stereo not drawn) [BNP7766]
substrate activity / NADPH oxidation by TXR in the presence of TX (in words) [3]: substrates

O=C(O)CCCc1ccc(N(CCCl)CCCl)cc1 [chlorambucil]
inhibition of TXR (in words) ([1]; literature studies): irreversibly inhibited TXR in a concentration- and time-dependent manner | inhibition of GR (in words) ([2]; literature studies): not GR

O=P1(N(CCCl)CCCl)NCCCO1 (stereo not drawn) [cyclophosphamide]
inhibition of TXR (in words) ([1]; literature studies): irreversibly inhibited TXR in a concentration- and time-dependent manner | inhibition of GR (in words) ([2]; literature studies): not GR

N.N.O.[Cl][Pt+] [monohydrated complex]
inhibition of TXR (in words) ([1]; literature studies): irreversibly inhibited TXR | inhibition of GR (in words) ([2]; literature studies): not GR

CS(=O)(=O)OCCCCOS(C)(=O)=O [busulfan]
inhibition of TXR (in words) ([1]; literature studies): irreversibly inhibited TXR in a concentration- and time-dependent manner | inhibition of GR (in words) ([2]; literature studies): not GR

N.N.O=C([O-])C1(C(=O)[O-])CCC1.[Pt+2] [carboplatin]
inhibition of TXR (in words) ([1]; literature studies): could not inhibit either TXR or GR | inhibition of GR (in words) ([2]; literature studies): could not inhibit either TXR or GR

N.N.[Cl][Pt][Cl] [cisplatin, cis-diamminedichloroplatinum]
inhibition of TXR (in words) ([1]; literature studies): irreversibly inhibited TXR | inhibition of GR (in words) ([2]; literature studies): not GR

N[C@@H](CSSCCS(=O)(=O)O)C(=O)NCC(=O)O [BNP7776]
substrate activity / NADPH oxidation by TXR in the presence of TX (in words) [3]: substrates

O=S(=O)([O-])CCSSCCS(=O)(=O)[O-].[Na+].[Na+] [BNP7787, disodium 2,2′-dithio-bis-ethane sulfonate]
NADPH oxidation / substrate activity with thioredoxin reductase alone, absence of TX (in words) [4]: indistinguishable from background; also recorded: not thioredoxin reductase alone | substrate activity for glutathione reductase (in words) [5]: not a substrate for glutathione reductase | activity with glutaredoxin (in words) [6]: substrate-like activity | increase in patient (median) survival, adenocarcinoma ([7]; listed as Tavocept): ~6.5 month | increase in patient (median) survival, adenocarcinoma ([7]; listed as Tavocept™): 6.54 month

N[C@@H](CCC(=O)N[C@@H](CSSCCS(=O)(=O)O)C(=O)NCC(=O)O)C(=O)O [BNP7772]
substrate activity / NADPH oxidation by TXR in the presence of TX (in words) [3]: substrates | substrate activity for glutathione reductase (in words) [5]: functions as an alternative substrate inhibitor

O=S(=O)(O)CCS [mesna, sodium-2-mercaptoethane sulfonate]
reduction of α-lipoic acid (TX/TXR substrate) or hydroxyethyldisulfide (GRX substrate) by whole cells [8]: enhanced the reduction | cytotoxic effect of oxaliplatin ([9]; mesna (100 μM) in combination with oxaliplatin vs oxaliplatin alone controls, NSCLC): markedly enhanced the cytotoxic effect | cytotoxic effect of paclitaxel ([9]; mesna (100 μM) in combination with paclitaxel vs paclitaxel alone controls): enhanced the cytotoxic effect | cytotoxic effect of oxaliplatin [10]: markedly enhanced the cytotoxic effect | oxaliplatin cytotoxicity (brain cancer cells): lesser increase in oxaliplatin cytotoxicity

NC(CCSSCCS(=O)(=O)O)C(=O)O (stereo not drawn) [BNP7768]
substrate activity / NADPH oxidation by TXR in the presence of TX (in words) [3]: substrates

N.N.[Cl][Pt+2][Cl] [transplatin]
inhibition of TXR (in words) ([1]; literature studies): irreversibly inhibited TXR | inhibition of GR (in words) ([2]; literature studies): not GR

N[C@@H](Cc1ccc(N(CCCl)CCCl)cc1)C(=O)O [melphalan]
inhibition of TXR (in words) ([1]; literature studies): irreversibly inhibited TXR in a concentration- and time-dependent manner | inhibition of GR (in words) ([2]; literature studies): not GR

O=P1(NCCCl)OCCCN1CCCl (stereo not drawn) [ifosfamide]
inhibition of TXR (in words) ([1]; literature studies): inhibited TXR

O=NN(CCCl)C(=O)NCCCl [carmustine]
inhibition of TXR (in words) ([1]; literature studies): can inhibit both GR and TXR | inhibition of GR (in words) ([2]; literature studies): can inhibit both GR and TXR
